# Tests used:
# murine splenocytes = assay: AAV8-dependent cytokine and chemokine release by murine splenocytes; assay type: cell-based, C57BL/6 mouse; conditions: dasatinib 100 nM, 50 nM or 12.5 nM; 24 hrs, AAV8-hSeap MOI 1E5
# Description: Splenocytes were isolated from a C57/B16 mouse and incubated for 24 hrs with AAV8-hSeap at MOI 1E5 in the presence or absence of dasatinib (100 nM, 50 nM or 12.5 nM). Cytokines and chemokines were measured in the culture supernatants. LPS (positive) and PBS (negative) controls are shown on the graphs. Means+/−SD (triplicates). Dashed line: Lower limit of quantification.
# To investigate the mechanism of dasatinib-mediated inhibition of the humoral response to AAV8 observed in mice (Examples 1 and 5), we looked whether the rapid production of cytokines and chemokines by immune cells was affected by the dasatinib treatment. Total splenocytes from a C57BL/6 mouse were cultured for 24 hrs in the presence or absence of dasatinib at different concentrations. Cytokines and chemokines secreted in the culture supernatants were analyzed using ProcartaPlex Immunoassays (Luminex).
# [1] = Lindauer M et al, 2010; cited from earlier work
# C57B1/6 mice = assay: transgene expression (hSEAP, hFIX) in serum following rAAV8 re-administration; assay type: in vivo
# Description: FIG. 1. rAAV8 readministration in mice and Dasatinib treatment. C57B1/6 mice were intravenously dosed on study day 1 with a rAAV8 encoding the hSEAP (human secreted alkaline phosphatase) at the dose of 1E12 vg/kg. On study day 22, they received a second rAAV8 encoding hFIX (human Factor IX) at the dose of 5E13 vg/kg. […] Group 2 (immunized mice, n=10) received both rAAV8 injections. Group 3 mice (n=10) received the two rAAV8 injections and were treated by oral gavage with 50 mg/kg dasatinib twice per day for 7 days starting on the day of first rAAV8 dosing. Blood samples were collected one day before and every 7 days after the first rAAV8 treatment.
# FIGS. 4A-4B. Dasatinib treatment allows transgene expression following rAAV re-administration. Serum was isolated from blood collected on study days 0, 8, 15, 21, 29 and 36 (FIG. 1). (FIG. 4A) Expression of the first transgene hSEAP was measured by chemiluminescence. (FIG. 4B) After AAV8 re-administration, expression of the second transgene hFactorIX was measured by ELISA. Mean concentrations are shown +/−SD.
# To assess whether dasatinib could efficiently prevent anti-AAV antibody formation after rAAV administration and allow efficient re-administration of rAAV, a study was conducted in mice (FIG. 1). Groups of C57B1/6 mice were intravenously dosed with a first rAAV8 encoding hSEAP (human secreted alkaline phosphatase, under control of a CMV promoter) at the dose of 1E12vg/kg on study day 1. On study day 22, they were dosed with a second rAAV8 encoding hFIX (human Factor IX, under control of a CMV promoter) at the dose of 5E13 vg/kg. […]
# Expression of the first transgene hSEAP and second transgene hFIX were measured in the serum samples from the experiment presented above (FIG. 1, Example 1). As expected, human SEAP was detected in the serum of mice from Groups 2 and 3, already 7 days after injection of AAV8-hSEAP on study day 1 (FIG. 4A). […] In contrast, hFIX expression was detected in the serum of all mice from the non-immunized Group 1 (mean: 2107 ng/ml) as well as in most mice from the dasatinib-treated Group 3 (average: 1398 ng/ml).
smiles,measurement,setting,value
"Cc1nc(Nc2ncc(C(=O)Nc3c(C)cccc3Cl)s2)cc(N2CCN(CCO)CC2)n1 [dasatinib, N-(2-chloro-6-methylphenyl)-2-[[6-[4-(2-hydroxyethyl)-1-piperazinyl]-2-methyl-4-pyrimidinyl]amino]-5-thiazole carboxamide monohydrate]",IL-6 in culture supernatant,murine splenocytes,dose-dependent decreases
same,IP-10/CXCL10 in culture supernatant,murine splenocytes,dose-dependent decreases
same,MCP-1 in culture supernatant,murine splenocytes,dose-dependent decreases
same,MCP-3 in culture supernatant,murine splenocytes,dose-dependent decreases
same,MIP-1α in culture supernatant,murine splenocytes,dose-dependent decreases
same,MIP-1β in culture supernatant,murine splenocytes,dose-dependent decreases
same,MIP-2α in culture supernatant,murine splenocytes,dose-dependent decreases
same,TNF-α in culture supernatant,murine splenocytes,dose-dependent decreases
same,half-life,[1],very short
same,human SEAP in serum,"C57B1/6 mice; Group 3, 7 days after AAV8-hSEAP on study day 1",detected
same,hFIX expression in serum (average),"C57B1/6 mice; Group 3, after AAV8-hFIX 5E13 vg/kg on day 22, dasatinib 50 mg/kg twice per day for 7 days at first rAAV8 dosing",1398 ng/mL
same,hFIX expression detected in serum,"C57B1/6 mice; Group 3, after second rAAV8 on day 22",in most mice

# Source: patent US20260000670A1 (priority 2022, published 2026)
